Test results reported in paper PMC12914960, “Repurposing a detrimental antibody epitope as targeted therapeutics for sepsis and rheumatoid arthritis” (Military Medical Research, 2026).
Where a SMILES comes first, the peptide text is derived from it.

Assays:
[1] = system: Differentiated human macrophages; assay: Cellular uptake of Alexa Fluor 555-labeled HMGB1 by differentiated macrophages; assay type: cell-based; settings: P2-1 10 µg/ml, HMGB1 0.5 µg/ml, 2 h, 37 °C
Procedure: plots and heatmaps were generat ed via ggplot2 and pheatmap packages in R, respectively. Genes with an adjusted P -value < 0.05 and a |log2 fold change| > 1 were considered differentially expressed.
Human macrophage differentiation and treatment
Human PBMCs were differentiated into macrophages by culturing in human macrophage colony-stimulating factor (M-CSF, 20 ng/ml) for 5 – 6 d. Differentiated macrophages were maintained in Dulbecco’s modified Eagle’s medium supplemented with 1% penicillin/streptomycin and 10% human serum. […]
Cell viability was assessed via the tryp an blue excl usion and lactat e dehyd ro genase (LDH) release method as previously described . For trypan blue exclusion, random phase-contr ast images were captur ed , and the percentage of nonviable, trypan blue-stained cells was calculated. LDH release in the culture medium was quantified with an LDH Ass ay Kit (Cat. #L7572, Pointe Scientific Inc., Canton, MI, USA) according to the manufacturer ’s instructions. Optical density was measured at 340 nm, and LDH content was expressed as a per centag e of maximal release in the presence of 2% Triton X-100. […]
#H-1200, Vector Laborat ories, Inc., Newark, CA, USA) for nuclear counterstaining. Endocytic uptake of Alexa Fluor 555- labeled HMGB1 (red) was visualized via the Olympus IX51 inverted fluorescence & phase contrast tissue culture microscope. […]

[2] = target: T1, Recombinant human HMGB1 (Homo sapiens, UniProt P09429); assay: SPR binding to immobilized HMGB1 (OpenSPR); settings: 1:1 model
T1 construct: made in house; host or cells: E. coli BL21 (DE3) pLysS (given for the rat HMGB1 preparation)
T1 sequence (P09429 whole entry, looked up): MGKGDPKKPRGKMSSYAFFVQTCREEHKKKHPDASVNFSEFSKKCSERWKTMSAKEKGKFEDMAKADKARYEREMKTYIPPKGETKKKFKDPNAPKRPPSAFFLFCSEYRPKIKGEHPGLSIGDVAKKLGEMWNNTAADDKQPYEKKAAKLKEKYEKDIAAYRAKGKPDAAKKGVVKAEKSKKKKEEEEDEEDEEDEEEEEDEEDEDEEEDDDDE
Procedure: Binding kinetics between HMGB1 and P2-1 were measured via Nicoya Life Science gold nanoparticle-based OpenSPR technology (Kitchener, ON, Canada) as previously described. Recombinant human HMGB1 was immobilized onto a carboxyl sensor chip, and the P2-1 peptide was flowed over the immobilized HMGB1 at various concentrations in HEPES-buffered saline with poloxamer (HBS-P buffer, GE Healthcare, Chicago, IL, USA). The response units were recorded over time, and binding affinity was estimated as the equilibrium dissociation constant KD using Trace Drawer Kinetic Data Analysis v.1.6.1 (Nicoya Life Science). Given the 1:1 stoichiometry of the HMGB1-P2-1 interaction predicted by ClusPro protein-protein docking (Additional file 1: Fig. S2), we applied a 1:1 interaction algorithm to determine the association rate constant (ka), dissociation rate constant (kd), and equilibrium dissociation constant (KD) from three independent experiments (n = 3 technical replicates). […]
interaction between high mobility group box 1 (HMGB1) and P2- 1. SPR plots showing the interaction between immobilized HMGB1 and different concentrations of the P2- 1 analyte. Experimental binding responses (blue, purple, and yellow traces) are shown with their corresponding global fits (black curves) via a 1:1 interaction model. The associated table summarizes the globally fitted kinetic parameters, including the maximum b inding capacity (Bmax), association rat e constant (ka), dissociation rat e con stant (kd), and other goodness-of-fit metrics (Chi2). The relatively low Chi2 value indicated a good fit bet ween
(1 picture or pasted object on this page, not shown here)

CCCC[C@H](NC(=O)[C@H](Cc1c[nH]cn1)NC(=O)[C@@H](NC(=O)[C@H](CCCCN)NC(=O)[C@@H](N)[C@@H](C)O)C(C)C)C(=O)N[C@@H](CCCCN)C(=O)N[C@@H](CO)C(=O)N[C@@H](Cc1ccccc1)C(=O)N[C@@H](CC(C)C)C(=O)N[C@@H](C)C(=O)N[C@@H](Cc1ccccc1)C(=O)N[C@@H](CCC(N)=O)C(=O)N[C@H](C(=O)N[C@@H](CCCCN)C(=O)N[C@H](C(=O)O)[C@@H](C)O)[C@@H](C)O [P2-1] (HELM PEPTIDE1{T.K.V.H.[Nle].K.S.F.L.A.F.Q.T.K.T}$$$$V2.0; N-terminus and C-terminus assumed)
HMGB1 cellular uptake, in words [1]: markedly reduced Alexa Fluor 555-HMGB1 uptake
KD ([2]; Exp 1): 14.8 nM
KD ([2]; Exp 2): 33.5 nM
KD ([2]; Exp 3): 2.3 nM
